Data reported in patent publication US20110112100A1, “Hepatitis C Virus Inhibitors” (priority 2009, published 2011).

Columns and labels:
[1] = test system: 1a-H77 replicon cells; assay: HCV 1a replicon inhibitory activity (Renilla luciferase); assay type: cell-based, hepatitis C virus; conditions: Hepatitis C virus; geometric mean, 95% confidence intervals in parentheses; 48 hours; medium with 10% FCS; read-out: IC50 value (95% Confidence Intervals) pM Replicon 1A assay
Method: (§1) Test compounds were solubilised to 4 mM in 100% DMSO. Dilutions were made to the desired starting concentration in 100% DMSO and then 1 in 3 dilutions made, again in 100% DMSO. 0.5 μl of each sample was added to 384-well assay plates. White Lumitrac (Greiner) plates were used for the 1a and 1b replicon assays and black, clear bottomed (Greiner) plates were used for the WST-1 cytotoxity assay.
1a-H77 replicon cells (licensed from Apath LLC) were resuspended to a concentration of 1.4×10^5 cells/ml by addition of pre-warmed assay medium (Dulbecco's Modified Eagle's Medium (DMEM)+10% fetal calf serum (FCS)). 50 μl of this suspension was added to each well of a 384-well assay plate (Lumitrac, Greiner), already containing 0.5 μl of test compound.
All plates were covered with gas permeable seals and incubated at 37° C., 5% CO2 for 48 hours. After 48 hours, the assay plate was removed from the incubator and left to cool to room temperature for 15 to 30 mins. Medium was removed from the wells and 5 μl 1× lysis buffer (from Promega's Renilla Luciferase assay kit, E2820) was added to each well. The plate was incubated at room temperature for 15 mins then 15 μl 1×Assay Substrate (from the same kit) was added to each well. Luminescence was read immediately using an EnVision (Perkin Elmer) plate reader. The half maximal effective concentration (1050) values were calculated by constructing log concentration-response curves for each compound.

[2] = test system: 1b (con1) replicon cells; assay: HCV 1b replicon inhibitory activity (luciferase, Britelite Plus); assay type: cell-based, hepatitis C virus; conditions: Hepatitis C virus; geometric mean, 95% confidence intervals in parentheses; 48 hours; medium with 10% FCS; read-out: IC50 value (95% Confidence Intervals) pM Replicon 1B assay
Method: as §1
1b (con1) replicon cells (pFK1389lucubineo/NS3-3′/ET/9B, licensed from Ralf Bartenschlager, University of Heidelberg) were resuspended to a concentration of 1.4×10^5 cells/ml by addition of pre-warmed medium (DMEM+10% FCS). 50 μl of this suspension was added to each well of a 384-well assay plate (Lumitrac, Greiner) already containing 0.5 μl of test compound.
All plates were covered with gas permeable seals and incubated at 37° C., 5% CO2 for 48 hours. After 48 hours, the plate was removed from the incubator and left to cool to room temperature for 15-30 mins. 35 ul of reconstituted Lyophilised Britelite Plus Substrate (PerkinElmer, 6016767) to medium was added to each well. Luminescence was read after 1 min but before 15 mins on an EnVision (Perkin Elmer) plate reader. The half maximal effective concentration (1050) values were calculated by constructing log concentration-response curves for each compound.

Compound	IC50 [1] [pM]	IC50 [2] [pM]
COC(=O)N[C@H](C(=O)N1CCC[C@H]1c1ncc(-c2ccc(-c3cnc4cc(-c5cnc([C@@H]6CCCN6C(=O)[C@@H](NC(=O)OC)C(C)C)[nH]5)ccc4n3)cc2)[nH]1)C(C)C [Example 4, Methyl {(2S)-1-[(2S)-2-{5-[4-(6-{2-[(2S)-1-{(2S)-2-[(methoxycarbonyl)amino]-3-methylbutanoyl}pyrrolidin-2-yl]-1H-imidazol-5-yl}quinoxalin-2-yl)phenyl]-1H-imidazol-2-yl}pyrrolidin-1-yl]-3-methyl-1-oxobutan-2-yl}carbamate]	17.4	7.7
COC(=O)N[C@H](C(=O)N1CCC[C@H]1c1ncc(-c2ccc(-c3ccc4nc(-c5cnc([C@@H]6CCCN6C(=O)[C@@H](NC(=O)OC)C(C)C)[nH]5)cnc4c3)cc2)[nH]1)C(C)C [Example 5, Methyl {(2S)-1-[(2S)-2-{5-[4-(2-{2-[(2S)-1-{(2S)-2-[(methoxycarbonyl)amino]-3-methyl-butanoyl}pyrrolidin-2-yl]-1H-imidazol-5-yl}quinoxalin-6-yl)phenyl]-1H-imidazol-2-yl}pyrrolidin-1-yl]-3-methyl-1-oxobutan-2-yl}carbamate]	387	8.12
COC(=O)N[C@H](C(=O)N1CCC[C@H]1c1nc(-c2ccc(-c3ccc4cc(-c5cnc([C@@H]6CCCN6C(=O)[C@@H](NC(=O)OC)C(C)C)[nH]5)ccc4c3)nc2)c[nH]1)C(C)C [Example 6, Methyl {(2S)-1-[(2S)-2-{5-[6-(5-{2-[(2S)-1-{(2S)-2-[(methoxycarbonyl)amino]-3-methyl-butanoyl}pyrrolidin-2-yl]-1H-imidazol-4-yl}pyridin-2-yl)naphthalen-2-yl]-1H-imidazol-2-yl}pyrrolidin-1-yl]-3-methyl-1-oxobutan-2-yl}carbamate]	56.4	3.51
COC(=O)N[C@H](C(=O)N1CCC[C@H]1c1ncc(-c2cnc(-c3ccc4cc(-c5cnc([C@@H]6CCCN6C(=O)[C@@H](NC(=O)OC)C(C)C)[nH]5)ccc4c3)nc2)[nH]1)C(C)C [Example 7, Methyl {(2S)-1-[(2S)-2-{5-[6-(5-{2-[(2S)-1-{(2S)-2-[(methoxycarbonyl)amino]-3-methyl-butanoyl}pyrrolidin-2-yl]-1H-imidazol-5-yl}pyrimidin-2-yl)naphthalen-2-yl]1H-imidazol-2-yl}pyrrolidin-1-yl]-3-methyl-1-oxobutan-2-yl}carbamate]	68.4	21.4
COC(=O)N[C@H](C(=O)N1CCC[C@H]1c1ncc(-c2ccc(-c3ccc4cc(-c5cnc([C@@H]6CCCN6C(=O)[C@@H](NC(=O)OC)C(C)C)[nH]5)ncc4c3)cc2)[nH]1)C(C)C [Example 8, Methyl {(2S)-1-[(2S)-2-{5-[4-(3-{2-[(2S)-1-{(2S)-2-[(methoxycarbonyl)amino]-3-methyl-butanoyl}pyrrolidin-2-yl]-1H-imidazol-5-yl}isoquinolin-7-yl)phenyl]-1H-imidazol-2-yl}pyrrolidin-1-yl]-3-methyl-1-oxobutan-2-yl}carbamate]	91.2	20.5
COC(=O)N[C@H](C(=O)N1CCC[C@H]1c1ncc(-c2ccc(-c3cnc4cc(-c5cnc([C@@H]6CCCN6C(=O)[C@@H](NC(=O)OC)C(C)C)[nH]5)ccc4n3)nc2)[nH]1)C(C)C [Example 9, Methyl {(2S)-1-[(2S)-2-{5-[6-(6-{2-[(2S)-1-{(2S)-2-[(methoxycarbonyl)amino]-3-methyl-butanoyl}pyrrolidin-2-yl]-1H-imidazol-5-yl}quinoxalin-2-yl)pyridin-3-yl]-1H-imidazol-2-yl}pyrrolidin-1-yl]-3-methyl-1-oxobutan-2-yl}carbamate]	42.9	12.7
COC(=O)N[C@H](C(=O)N1CCC[C@H]1c1nc(-c2ccc(-c3cc4ccc(-c5cnc([C@@H]6CCCN6C(=O)[C@@H](NC(=O)OC)C(C)C)[nH]5)cc4cn3)nc2)c[nH]1)C(C)C [Example 11, Methyl {(2S)-1-[(2S)-2-{4-[6-(7-{2-[(2S)-1-{(2S)-2-[(methoxycarbonyl)amino]-3-methyl-butanoyl}pyrrolidin-2-yl]-1H-imidazol-5-yl}isoquinolin-3-yl)pyridin-3-yl]-1H-imidazol-2-yl}pyrrolidin-1-yl]-3-methyl-1-oxobutan-2-yl}carbamate]	42.1	20.8
COC(=O)N[C@H](C(=O)N1CCC[C@H]1c1nc(-c2ccc3cc(-c4ccc(-c5cnc([C@@H]6CCCN6C(=O)[C@@H](NC(=O)OC)C(C)C)[nH]5)cc4)ccc3n2)c[nH]1)C(C)C [Example 13, Methyl {(2S)-1-[(2S)-2-{5-[4-(2-{2-[(2S)-1-{(2S)-2-[(methoxycarbonyl)amino]-3-methyl-butanoyl}pyrrolidin-2-yl]-1H-imidazol-4-yl}quinolin-6-yl)phenyl]-1H-imidazol-2-yl}pyrrolidin-1-yl]-3-methyl-1-oxobutan-2-yl}carbamate]	78.1	12
COC(=O)N[C@H](C(=O)N1CCC[C@H]1c1ncc(-c2ccc(-c3cnc4cc(-c5cnc([C@@H]6CCCN6C(=O)[C@@H](NC(=O)OC)C(C)C)[nH]5)cnc4n3)cc2)[nH]1)C(C)C [Example 14, Methyl {(2S)-1-[(2S)-2-{5-[3-(4-{2-[(2S)-1-{(2S)-2-[(methoxycarbonyl)amino]-3-methyl-butanoyl}pyrrolidin-2-yl]-1H-imidazol-5-yl}phenyl)pyrido[2,3-b]pyrazin-7-yl]-1H-imidazol-2-yl}pyrrolidin-1-yl]-3-methyl-1-oxobutan-2-yl}carbamate]	882	189
COC(=O)N[C@H](C(=O)N1CCC[C@H]1c1ncc(-c2ccc(-c3nc(O)c4cc(-c5cnc([C@@H]6CCCN6C(=O)[C@@H](NC(=O)OC)C(C)C)[nH]5)ccc4n3)cc2)[nH]1)C(C)C [Example 15, Methyl {(2S)-1-[(2S)-2-{5-[4-(4-hydroxy-6-{2-[(2S)-1-{(2S)-2-[(methoxycarbonyl)amino]-3-methylbutanoyl}pyrrolidin-2-yl]-1H-imidazol-5-yl}quinazolin-2-yl)phenyl]-1H-imidazol-2-yl}pyrrolidin-1-yl]-3-methyl-1-oxobutan-2-yl}carbamate]	194	102
CCOc1nc(-c2ccc(-c3cnc([C@@H]4CCCN4C(=O)[C@@H](NC(=O)OC)C(C)C)[nH]3)cc2)nc2ccc(-c3cnc([C@@H]4CCCN4C(=O)[C@@H](NC(=O)OC)C(C)C)[nH]3)cc12 [Example 16, Methyl {(2S)-1-[(2S)-2-{5-[4-(4-ethoxy-6-{2-[(2S)-1-{(2S)-2-[(methoxycarbonyl)amino]-3-methylbutanoyl}pyrrolidin-2-yl]-1H-imidazol-5-yl}quinazolin-2-yl)phenyl]-1H-imidazol-2-yl}pyrrolidin-1-yl]-3-methyl-1-oxobutan-2-yl}carbamate]	35.3	5.28
COC(=O)N[C@H](C(=O)N1CCC[C@H]1c1nc(-c2ccc(-c3nc4ccc(-c5c[nH]c([C@@H]6CCCN6C(=O)[C@@H](NC(=O)OC)C(C)C)n5)cc4nc3OC)cc2)c[nH]1)C(C)C [Example 17, Methyl {(2S)-1-[(2S)-2-{4-[4-(3-methoxy-6-{2-[(2S)-1-{(2S)-2-[(methoxycarbonyl)amino]-3-methylbutanoyl}pyrrolidin-2-yl]-1H-imidazol-4-yl}quinoxalin-2-yl)phenyl]-1H-imidazol-2-yl}pyrrolidin-1-yl]-3-methyl-1-oxobutan-2-yl}carbamate]	560	22.3
COC(=O)N[C@H](C(=O)N1CCC[C@H]1c1nc(-c2ccc(-c3nc4ccc(-c5c[nH]c([C@@H]6CCCN6C(=O)[C@@H](NC(=O)OC)C(C)C)n5)cc4nc3O)cc2)c[nH]1)C(C)C [Example 18, Methyl {(2S)-1-[(2S)-2-{4-[4-(3-hydroxy-6-{2-[(2S)-1-{(2S)-2-[(methoxycarbonyl)amino]-3-methylbutanoyl}pyrrolidin-2-yl]-1H-imidazol-4-yl}quinoxalin-2-yl)phenyl]-1H-imidazol-2-yl}pyrrolidin-1-yl]-3-methyl-1-oxobutan-2-yl}carbamate]	536	35.8
COC(=O)N[C@H](C(=O)N1CCC[C@H]1c1nc(-c2ccc(-c3cnc4cc(-c5cnc([C@@H]6CCCN6C(=O)[C@@H](NC(=O)OC)C(C)C)[nH]5)cnc4c3)cc2)c[nH]1)C(C)C [Example 19, Methyl {(2S)-1-[(2S)-2-{5-[7-(4-{2-[(2S)-1-{(2S)-2-[(methoxycarbonyl)amino]-3-methylbutanoyl}pyrrolidin-2-yl]-1H-imidazol-4-yl}phenyl)-1,5-naphthyridin-3-yl]-1H-imidazol-2-yl}pyrrolidin-1-yl]-3-methyl-1-oxobutan-2-yl}carbamate]	468	38.3
